These results are taken from patent publication US20050220800A1, “Cytokines and cytokine receptors with reduced immunogenicity” (priority 2002, published 2005).

The test system of assay [1] is human CD4+ T-cells. The assay can be described thus: I-MUNE assay of human erythropoietin peptides. In kind it is cell-based. Conditions: 59 donors; FIG. 11. As to the method:
Peptides for use in the I-MUNE® assay as described in Example 3 were prepared based on the sequence of human erythropoietin (EPO), (GenBank Accession No. P1588), with the sequence:
The I-MUNE® assay described in Example 3, was conducted using cells obtained from 59 donors. FIG. 11 provides a graph showing the data obtained in the I-MUNE® assay with the pepset produced from the EPO sequence above (SEQ ID NO:108). […] Peptide #34 has the sequence SGLRSLTTLLRALGA (SEQ ID NO:109), and peptide #48 has the sequence FRVYSNFLRGKLKLY (SEQ ID NO:110). As active mutants have been made in the region represented by peptides #34 and #48 (See, Elliott et al., 89:493-502 [1997]), it is contemplated that amino acid modifications in or around these peptides will provide variant EPO suitable for use as an EPO substitute.

Assay [2] has as its system human CD4+ T-cells. Kind of assay: I-MUNE assay of human thrombopoietin peptides. The assay is classed as cell-based. On the procedure: Peptides for use in the I-MUNE® assay as described in Example 3 were prepared based on the sequence of the first 152 residues of human thrombopoietin (i.e., the active domain of TPO), as well as the entire TPO sequence, including the CHO binding domain (GenBank Accession No. P40225) with the sequence:
The I-MUNE® assay described in Example 3, was conducted using cells obtained from 99 donors. The background was determined to be 2.5, and the standard deviation was 9.2. FIG. 7 provides a graph showing the data obtained in the I-MUNE® assay with the first 152 residues of TPO (i.e., the active domain).
FIG. 8 provides a graph showing the results for the I-MUNE® assay conducted using the entire TPO molecule, including the CHO binding domain.
FIG. 9, Panels A and B provide graphs showing the results for TPO epitope #45, in which the critical residues were tested. The average parental residue response was 9.18±1.82. Values less that 3.5% were equivalent to 3 standard deviations under the averaged response of the parent peptides.

Assay [3] concerns human CD4+ T-cells. Kind of assay: I-MUNE assay of IFN-β 15mer peptides (T-cell proliferation). In kind it is cell-based. Conditions: percent of donors with proliferative response at least 2.95 times baseline; 87 donors; 5 μM peptide. As to the method:
Fresh human peripheral blood cells were collected from 87 humans of unknown exposure status to IFN-β. These cells were tested to determine antigenic epitopes in IFN-β, as described in Example 3.
Peripheral mononuclear blood cells (stored at room temperature, no older than 24 hours) were prepared for use as follows: Approximately 30 mls of a solution of buffy coat preparation from one unit of whole blood was brought to 50 ml with Dulbecco's phosphate buffered solution (DPBS) and split into two tubes. The samples were underlaid with 12.5 ml of room temperature Lymphoprep density separation media (Nycomed; Pharma AS; Density 1.077 g/ml). The tubes were centrifuged for thirty minutes at 600×g. The interface of the two phases was collected, pooled and washed in DPBS. The cell density of the resultant solution was measured by hemocytometer, as known in the art. Viability was measured by trypan blue exclusion, as known in the art. […]
CD4+ T cells were prepared from frozen aliquots of the peripheral blood cell samples used to prepare the dendritic cells, using reagents provided by the Dynal CD4+ T-cell enrichment kit (Dynal). The resultant CD4+ cell solution was centrifuged, resuspended in AIMV media and the cell density was determined using methods known in the art. […]

Assay [4] has as its system human CD4+ T-cells. The assay can be described thus: I-MUNE assay of IFN-β variant peptides. Conditions: for status on additional testing: FIG. 5. In kind it is cell-based. On the procedure: A set of variant peptides was ordered based on the sequences of peptides #1 (SEQ ID NO:2), #27 (SEQ ID NO:28), and #40 (SEQ ID NO:41). An alanine scan was performed for each peptide. In addition, variant peptides were ordered that corresponded to the peptide sequences as described by Runkel et al., (Runkel et al., Biochem., 39:2538-2551 [2000]). These variant peptides were synthesized by Mimotopes (San Diego, Calif.) using the multi-pin synthesis technique known in the art (See e.g., Maeji et al., J. Immunol. Meth., 134:23-33 [1990]).
The I-IMUNE® assay was performed as described in Example 3, utilizing the variant peptides on a set of 103 donor samples. […] Epitope #40 returned a consistent donor response percent of 15%.

Another assay concerns HLA-DR and -DQ antigens. The assay can be described thus: HLA association with response to epitope peptide #40. Conditions: for percent non-responsive / percent responsive / relative risk: 186 donors. Further details: species or system human. As to the method: The HLA-DR and DQ expression of all the donors tested in both rounds of assay testing described above were assessed using a commercially available PCR-based HLA typing kit (Bio-Synthesis). The phenotypic frequencies of individual HLA-DR and -DQ antigens among responders and non-responders to peptide #40 were tested using a chi-squared analysis with 1 degree of freedom. The increased or decreased likelihood of reacting to epitope #40, the relative risk, was calculated wherever the HLA antigen in question was present in both responding and non-responding donor samples.
A total of 186 donors were completely HLA typed, and were included in the analysis for epitope peptide #40.
The magnitude of the proliferative response to peptide #40 in responders and non-responders expressing HLA-DQ6 was also analyzed. […] As a control, non-responders to the peptide returned the same level of proliferation the peptide regardless of their expression of HLA-DQ6.

The subject of assay [5] is human CD4+ T-cells. The assay can be described thus: I-MUNE assay of soluble human TNF-R1 peptides. Conditions: FIG. 10. In kind it is cell-based. As to the method: Peptides for use in the I-MUNE® assay as described in Example 3 were prepared based on the sequence of the soluble human tumor necrosis factor receptor 1 (TNF-R1) (GenBank Accession No. P19438) with the sequence:
The background was determined to be 2.23 and the value for three standard deviations was 8.07. This epitope has the sequence CSLCLNGTVHLSCQE (SEQ ID NO:107). […] This variant was then reported to have a reduced immunogenic capacity when tested in a non-human primate (See, Rosenberg et al., J. Appl. Physiol., 91:2213-2223 [2001]). Thus, it is contemplated that modifications in this epitope will provide advantages in the development of sTNFR-1 for use in treatment.

Regarding “FRVYSNFLRGKLKLY (listed as Homo sapiens) [peptide #48]”, the epitope identification result in the assay on human CD4+ T-cells [1] is recorded as “Epitopes of interest”.
“RAPPTTAVPSRTSLVLTL (listed as Homo sapiens) [peptide #45]”: in the assay on human CD4+ T-cells [2] (TPO epitope #45 critical residue testing, FIG. 9), the response amounted to 9.18±1.82%. Also, the epitope identification entry in the assay with human CD4+ T-cells [2] (entire TPO molecule, 99 donors, FIG. 8) is “epitope of interest”.
On to “peptide #40: 15mer peptide of human IFN-β pepset, SEQ ID NO:41; identified CD4+ T-cell epitope (SSLHLKRYYGRILHY)”, for which, in the assay with human CD4+ T-cells [3], the percent response came out at 18.18%. This substance also registered a donor response percent in the assay on human CD4+ T-cells [4] (103 donor samples) of 15%. The “magnitude of the proliferative response in responders expressing HLA-DQ6 versus responders not expressing HLA-DQ6” value in the assay with HLA-DR and -DQ antigens (FIG. 6, responder = stimulation index greater than 2.95) is listed as “significantly higher”. In the assay with HLA-DR and -DQ antigens (HLA-DQ6), the percent non-responsive is given as 25%, the percent responsive stood at 61% and the relative risk is on record as 3.58. In the assay on HLA-DR and -DQ antigens (HLA-DR1), this substance yielded a percent non-responsive of 3%, a percent responsive of 17% and a relative risk of 0.19. In the assay with HLA-DR and -DQ antigens (HLA-DR15), this substance came in with a percent non-responsive of 15%, a percent responsive of 39% and a relative risk of 2.68.
Take “CSLCLNGTVHLSCQE (listed as Homo sapiens) [SEQ ID NO:107]”: in the assay with human CD4+ T-cells [5], the epitope identification entry is “significant epitope”.
For “peptide #1: 15mer peptide of human IFN-β pepset, SEQ ID NO:2 (MSYNLLGFLQRSSNF)”, in the assay with human CD4+ T-cells [3], the percent response is reported as ≥ 9.51%. The “status on additional testing” value with human CD4+ T-cells [4] is listed as “non-statistically relevant”.
Turning to “SGLRSLTTLLRALGA (listed as Homo sapiens) [peptide #34]”, the epitope identification entry in the assay on human CD4+ T-cells [1] was “Epitopes of interest”.
Take “peptide #27: 15mer peptide of human IFN-β pepset, SEQ ID NO:28 (WNETIVENLLANVYR)”: in the assay with human CD4+ T-cells [4], the “status on additional testing” value was “non-statistically relevant”.
